Values quoted from earlier work as cited in patent publication US12370144B2, “Centanafadine pharmaceutical formulations, and methods of making and using same” (OTSUKA PHARMACEUTICAL CO., LTD., priority 2021, dated 2025).

Tests used:
[1] = target: norepinephrine reuptake transporter (NET) (Homo sapiens, UniProt P23975); details: triple reuptake inhibitor, rank of potency
[2] = target: dopamine reuptake transporter (DAT) (Homo sapiens, UniProt Q01959); details: fraction of the potency towards NET
[3] = target: serotonin reuptake transporter (SERT) (Homo sapiens, UniProt P31645); details: fraction of the potency towards NET
[4] = not told

Chain of serotonin reuptake transporter (SERT) (P31645 whole entry, species assumed): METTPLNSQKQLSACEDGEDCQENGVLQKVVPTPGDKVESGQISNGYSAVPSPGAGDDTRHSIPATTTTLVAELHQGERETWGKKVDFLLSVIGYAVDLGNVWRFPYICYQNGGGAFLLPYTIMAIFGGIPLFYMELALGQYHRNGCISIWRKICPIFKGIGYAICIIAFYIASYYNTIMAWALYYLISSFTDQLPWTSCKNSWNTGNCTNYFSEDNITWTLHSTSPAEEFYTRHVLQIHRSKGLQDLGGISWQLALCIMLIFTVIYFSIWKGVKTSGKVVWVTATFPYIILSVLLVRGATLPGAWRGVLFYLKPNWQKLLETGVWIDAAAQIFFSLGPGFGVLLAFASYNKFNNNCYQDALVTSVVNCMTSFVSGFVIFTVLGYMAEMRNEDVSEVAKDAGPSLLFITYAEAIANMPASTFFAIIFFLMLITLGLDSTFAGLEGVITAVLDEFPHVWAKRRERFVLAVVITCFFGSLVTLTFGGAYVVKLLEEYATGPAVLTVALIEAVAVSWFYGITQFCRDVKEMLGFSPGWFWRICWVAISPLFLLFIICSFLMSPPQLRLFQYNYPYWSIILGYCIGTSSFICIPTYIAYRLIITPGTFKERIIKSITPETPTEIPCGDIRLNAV
Chain of norepinephrine reuptake transporter (NET) (P23975 whole entry): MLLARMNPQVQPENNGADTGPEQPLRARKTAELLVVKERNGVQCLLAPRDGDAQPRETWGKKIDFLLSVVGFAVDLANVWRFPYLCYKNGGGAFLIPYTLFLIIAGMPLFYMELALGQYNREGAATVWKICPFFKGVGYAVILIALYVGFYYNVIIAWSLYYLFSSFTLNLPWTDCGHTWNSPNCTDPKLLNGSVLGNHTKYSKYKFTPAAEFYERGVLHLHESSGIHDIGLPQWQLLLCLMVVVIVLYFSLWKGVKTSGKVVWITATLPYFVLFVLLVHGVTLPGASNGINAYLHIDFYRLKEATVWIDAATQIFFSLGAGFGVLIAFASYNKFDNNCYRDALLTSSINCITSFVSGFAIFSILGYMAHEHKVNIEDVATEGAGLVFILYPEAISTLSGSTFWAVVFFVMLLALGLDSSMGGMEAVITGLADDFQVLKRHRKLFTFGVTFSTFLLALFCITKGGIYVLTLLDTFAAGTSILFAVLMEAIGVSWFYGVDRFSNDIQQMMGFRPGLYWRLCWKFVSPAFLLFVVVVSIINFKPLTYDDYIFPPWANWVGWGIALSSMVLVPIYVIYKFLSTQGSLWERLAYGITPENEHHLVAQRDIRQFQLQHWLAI
Chain of dopamine reuptake transporter (DAT) (Q01959 whole entry, species assumed): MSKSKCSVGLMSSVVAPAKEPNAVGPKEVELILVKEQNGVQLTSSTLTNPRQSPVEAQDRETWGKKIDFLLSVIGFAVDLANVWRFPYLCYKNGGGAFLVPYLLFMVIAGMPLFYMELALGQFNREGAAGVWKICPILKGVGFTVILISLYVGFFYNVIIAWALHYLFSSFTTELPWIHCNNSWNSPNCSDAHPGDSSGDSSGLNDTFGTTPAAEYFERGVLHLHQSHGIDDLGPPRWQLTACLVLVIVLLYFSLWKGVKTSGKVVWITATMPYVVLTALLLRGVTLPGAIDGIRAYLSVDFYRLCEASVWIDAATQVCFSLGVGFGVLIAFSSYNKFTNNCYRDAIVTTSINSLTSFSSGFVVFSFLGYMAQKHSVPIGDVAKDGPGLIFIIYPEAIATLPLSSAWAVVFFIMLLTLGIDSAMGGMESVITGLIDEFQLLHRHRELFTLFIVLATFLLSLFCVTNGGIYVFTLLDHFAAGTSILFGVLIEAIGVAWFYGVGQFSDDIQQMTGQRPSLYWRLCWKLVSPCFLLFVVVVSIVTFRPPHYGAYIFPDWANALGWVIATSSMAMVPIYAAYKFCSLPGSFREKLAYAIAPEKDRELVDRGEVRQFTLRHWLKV

c1ccc2cc([C@]34CNC[C@H]3C4)ccc2c1 [centanafadine, (1R,5S)-1-(naphthalen-2-yl)-3-azabicyclo[3.1.0]hexane]
Potency towards NET [1]: most potency | Potency towards DAT relative to NET [2]: one-sixth | Potency towards SERT relative to NET [3]: one-fourteenth | Permeability [4]: highly permeable
